Literature values, collected in paper PMC7060171, “Evaluation of Radiation dosimetry of ^99mTc-HYNIC-PSMA and imaging in prostate cancer” (Scientific Reports, 2020).

Conditions: not given

| Effective dose [mSv/MBq] | SMILES |
| --- | --- |
| 2.2E-02 | O=C(O)CC[C@H](NC(=O)N[C@@H](CCCCNC(=O)[C@H](Cc1ccc2ccccc2c1)NC(=O)c1ccc(CNC(=O)[C@H](CCC(=O)O)NC(=O)[C@H](CCC(=O)O)NC(=O)c2ccc([18F])nc2)cc1)C(=O)O)C(=O)O [^18F-PSMA-1007] |
| 2.36E-02 | O=C([O-])CN(CCN(CC(=O)[O-])Cc1cc(CCC(=O)NCCCCCC(=O)NCCCC[C@H](NC(=O)N[C@@H](CCC(=O)O)C(=O)O)C(=O)O)ccc1[O-])Cc1cc(CCC(=O)O)ccc1[O-].[68Ga+3].[OH3+] [^68Ga-PSMA-11] |
| 8.8E-03 | O=C(O)CC[C@H](NC(=O)N[C@@H](CCC(=O)N[C@@H](CCCCN(Cc1nccn1CC(=O)N(CC(=O)O)CC(=O)O)Cc1nccn1CC(=O)N(CC(=O)O)CC(=O)O)C(=O)O)C(=O)O)C(=O)O.[99Tc+4].[CH-]=O.[CH-]=O.[CH-]=O.[Cl-] [^99mTc-MIP-1404] |
| 1.39E-02 | O=C(O)CC[C@H](NC(=O)N[C@@H](CCCCNC(=O)c1ccc([18F])nc1)C(=O)O)C(=O)O [^18F-DCFPyL] |

Same assay, conditions: conventional 99mTc-labelled radiopharmaceuticals used in SPECT/CT scans

| Effective dose [mSv/MBq] | SMILES |
| --- | --- |
| 5.68E-03 | O=P(O)(O)CP(=O)(O)O (99mTc complex, metal not drawn) [MDP] |
| 7.83E-03 | [C-]#[N+]CC(C)(C)OC.[C-]#[N+]CC(C)(C)OC.[C-]#[N+]CC(C)(C)OC.[C-]#[N+]CC(C)(C)OC.[C-]#[N+]CC(C)(C)OC.[C-]#[N+]CC(C)(C)OC.[Tc] [MIBI] |
